Source: ChEMBL document CHEMBL5344460, “Advancements in Predictive Medicine: NLRP3 Inflammasome Inhibitors and AI-Driven Predictive Health Analytics” (ACS Med Chem Lett, 2024)

Target: NACHT, LRR and PYD domains-containing protein 3 (Homo sapiens, UniProt Q96P20)
Experiment: Binding affinity to human recombinant NLRP3 inflammasome

Chain of NACHT, LRR and PYD domains-containing protein 3 (Q96P20 whole entry, the tested form may be a part): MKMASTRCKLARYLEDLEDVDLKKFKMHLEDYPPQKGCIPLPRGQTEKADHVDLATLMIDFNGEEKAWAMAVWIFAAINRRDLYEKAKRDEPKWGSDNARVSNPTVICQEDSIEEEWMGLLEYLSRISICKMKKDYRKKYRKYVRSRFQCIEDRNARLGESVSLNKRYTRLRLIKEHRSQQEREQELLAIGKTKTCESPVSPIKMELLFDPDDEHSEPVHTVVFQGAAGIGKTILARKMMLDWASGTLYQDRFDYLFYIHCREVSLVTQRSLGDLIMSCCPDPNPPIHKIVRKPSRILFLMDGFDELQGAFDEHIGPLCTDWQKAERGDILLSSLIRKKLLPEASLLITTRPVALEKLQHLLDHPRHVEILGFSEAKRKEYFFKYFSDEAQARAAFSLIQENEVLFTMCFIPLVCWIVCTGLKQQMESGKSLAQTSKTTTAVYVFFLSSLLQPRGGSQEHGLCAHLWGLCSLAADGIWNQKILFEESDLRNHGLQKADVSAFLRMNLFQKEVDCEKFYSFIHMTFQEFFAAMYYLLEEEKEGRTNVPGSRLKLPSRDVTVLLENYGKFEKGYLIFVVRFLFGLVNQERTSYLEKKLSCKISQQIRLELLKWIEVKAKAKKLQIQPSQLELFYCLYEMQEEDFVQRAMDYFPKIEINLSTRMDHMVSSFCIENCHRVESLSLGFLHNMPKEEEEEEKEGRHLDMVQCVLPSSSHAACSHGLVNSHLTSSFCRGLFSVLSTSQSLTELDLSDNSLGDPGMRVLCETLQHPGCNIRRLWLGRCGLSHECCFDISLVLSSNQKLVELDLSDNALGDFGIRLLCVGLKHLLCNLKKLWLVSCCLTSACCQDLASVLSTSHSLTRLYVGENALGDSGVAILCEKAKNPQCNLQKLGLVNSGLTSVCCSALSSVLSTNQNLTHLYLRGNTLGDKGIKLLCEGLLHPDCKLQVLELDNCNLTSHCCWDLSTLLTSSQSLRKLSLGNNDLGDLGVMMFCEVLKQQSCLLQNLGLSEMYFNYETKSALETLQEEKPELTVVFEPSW

| Kd [nM] | SMILES |
| --- | --- |
| 3000 | COc1ccc(Cl)cc1Cn1cc(-c2ccc(C(=O)N3CCC3)cc2)nn1 |
| 980 | COc1ccc(Cl)cc1Cn1cc(C(=O)N2CC(F)(F)C2)nn1 |
| 860 | COC(=O)c1ccc(-c2cn(Cc3cc(Cl)ccc3OC)nn2)nc1 |
